Where two headings read alike, the source gives them in different places.
Experiments:
B16-BL6 murine melanoma = system: B16-BL6 murine melanoma; set-up: method as in British Biotech, unpublished data; settings: B16-BL6 murine melanoma model; ref British Biotech, unpublished data; cited from earlier work
[1] = Phase I dose-escalation study: DLT, MTD and adverse events
Protocol: Patients over the age of 18 were required to be of ECOG performance status 0, 1 or 2, and to have a predicted survival of at least 3 months.
This was a phase I, open-label, dose-escalation study. BB-3644 was supplied as capsules comprising 5, 10, 20 and 40 mg BB-3644 (with maize starch, colloidal silica, magnesium stearate and lactose) by British Biotech Pharmaceuticals Ltd, UK. BB-3644 was administered orally twice daily for 84 days to cohorts of patients at doses 5, 10, 20 and 30 mg. […] Dose-limiting toxicity was defined as ‘an adverse reaction likely to be caused by the study drug and unlikely to be attributed to concurrent disease or other drugs or chemicals’. Essentially, any toxicity graded by CTC criteria as at least grade II was considered to be a DLT, as this could preclude chronic oral administration of a drug. If one patient experienced DLT, the cohort size was increased to six patients for that dose level. Further dose escalation was performed, provided that no more than […] patients experienced DLT by day 28. Nine patients were to be treated at the highest dose level. Patients experiencing DLT were eligible to continue treatment at a reduced dose following resolution of toxicity.
Physical examination, chest radiograph, haematology and serum chemistry were checked at baseline, every 4 weeks and at study termination. […] Patients were also reviewed by an opthalmologist at these times, to check the visual acuity, visual fields, and examine the whole eye and the fundi.

[2] = cited from earlier work
solid tumours = assay: Assessment of response in the phase I study; format: in vivo, patients
Protocol: Disease assessment was performed at baseline and repeated at 84 days or at withdrawal from the study. Patients were reviewed 4 weeks after withdrawal from the study.
Response was formally assessed radiologically after 3 months of therapy.

[3] = system: MDA-435 human breast carcinoma; set-up: method as in British Biotech, unpublished data; settings: MDA-435 human breast carcinoma model; ref British Biotech, unpublished data; cited from earlier work
[4] = set-up: method as in British Biotech, unpublished data; settings: marmosets; ref British Biotech, unpublished data; cited from earlier work
[5] = system: processing of cell-bound TNF-α; settings: relative to marimastat; background data, no reference given; cited from earlier work
[6] = system: HODP.IP rat mammary carcinoma cells; set-up: method as in British Biotech, unpublished data; settings: lung colonisation model, ref British Biotech, unpublished data; cited from earlier work
collagenase-3 = settings: background data, no reference given; read-out: IC50 against collagenase-3; cited from earlier work
enkephalinase = settings: background data, no reference given; read-out: IC50 against enkephalinase; cited from earlier work
gelatinase A = settings: background data, no reference given; read-out: IC50 against gelatinase A; cited from earlier work
clinical = settings: human, in vivo; for half-life: T1/2; for AUC(0-t): AUC0–24
Protocol: Blood samples were collected in heparinised tubes before treatment, every 15 min for 2 h, at 2 h 30 min, 3, 4, 6, 8, 10 and 24 h on days 1 and 14 for the measurement of BB-3644. Blood samples were kept on ice. They were centrifuged at 4°C (1500 g for 10 min) within 30 min of collection. The supernatant plasma was collected and frozen at −70°C or cooler, until sent for analysis. Samples were analysed centrally in the Department of Drug Metabolism and Pharmacokinetics at British Biotech, UK.
Samples were analysed for BB-3644 content using a validated reverse-phase HPLC method with mass spectrometric detection. The limit of quantification was 1 ng ml^−1. The data were analysed using WinNonlin v2.1 Standard version (Pharsight Corporation, USA). PK parameters were derived from individual plasma concentration–time data, using noncompartmental analysis.
On the days of PK sampling, only the morning dose of BB-3644 was taken.

[7] = rhesus monkey, in vivo; cited from earlier work
[8] = ref Wojtowicz-Praga et al, 1998, cited from earlier work
[9] = of the 13 patients that completed 12 weeks of therapy

For `CO[C@H](C(=O)NO)[C@@H](CC(C)C)C(=O)N[C@H](C(=O)Nc1ccccn1)C(C)(C)C` [BB-3644], the “activity in inhibiting tumour growth” value (B16-BL6 murine melanoma) is listed as “activity in inhibiting tumour growth”, the “maximum tolerated dose (MTD)” value ([1]; 28 days of oral treatment) is listed as 20 mg bd and the “maximum tolerated dose (MTD)” value ([1]; chronic oral dosing (>28 days, up to 84 days)) is listed as 5 mg bd. For the same compound, the “patients with musculoskeletal DLTs (number)” value ([1]; human, in vivo, 84 days) was 14, the “patients with musculoskeletal DLTs (share)” value ([1]; human, in vivo, 84 days) was 64% and the “SAE considered possibly related to the study drug” value ([1]; in vivo) was “thromboembolic episodes”. For the same compound, the “ophthalmological or gall bladder-related toxicity” value ([1]; in vivo) was “no significant opthalmological or gall bladder-related toxicity”, the “patients who developed phlebitis” value ([1]; in vivo) was “Two” and the “patients with dose-limiting malaise (NCI CTC toxicity >grade 1)” value ([1]; in vivo) was “Two”. The “dose-limiting toxicity (DLT), nature” value ([1]; in vivo, po) was “musculoskeletal pain”, the “toxicity at higher doses” value ([2]; dog, in vivo) was “Encephalopathy” and the ocular changes ([2]; dogs, ref British Biotech, unpublished data) was “conjunctival hyperaemia, chemosis, corneal stromal limbal vascularisation and diffuse corneal haze and flocculation”. The “therapeutic activity, overall conclusion” value (solid tumours; 22 patients, 5 to 30 mg bd) was “no evidence of beneficial therapeutic activity”, the “patients with progressive disease radiologically” value (solid tumours; [9]) was 11 and the “patients with stable disease radiologically” value (solid tumours; [9]) was “two”. The “activity in inhibiting tumour growth” value [3] was “activity in inhibiting tumour growth”, the joint toxicity [4] was “induced inflammation of joint ligaments and tendons” and the principal toxicity [4] was “cell debris in the gall bladder, with mucosal erosions and epithelial hyperplasia”. For the same compound, the “fold more active than marimastat in inhibiting the processing of cell-bound TNF-α” value [5] was greater than 10 fold, the “tendinitis of the hind limbs” value [6] was “did not cause tendinitis of the hind limbs” and the IC50 (collagenase-3) was 3 nM. For the same compound, the IC50 (enkephalinase) was 40 nM, the IC50 (gelatinase A) was 80 nM and the “time to mean maximal concentration, range over dose levels” value (clinical) was 30 to 90 min. The T1/2 (clinical; 5 mg) was 4 h, the Tmax (clinical; 5 mg) was 1 h and the half-life (clinical; 5 mg) was 2 h. The Tmax (clinical; 5 mg, Tmax) was 0.75 h, the Cmax (clinical; 10 mg) was 179 ng/mL and the T1/2 (clinical; 10 mg) was 2.5 h. The Tmax (clinical; 10 mg) was 1 h, the Cmax (clinical; 10 mg, Cmax) was 114 ng/mL and the half-life (clinical; 10 mg) was 1.5 h. The Tmax (clinical; 10 mg, Tmax) was 0.5 h, the “AUC0–24” value (clinical; 20 mg) was 1248 ng·h/mL and the Cmax (clinical; 20 mg) was 282 ng/mL. It also gave a T1/2 (clinical; 20 mg) of 3 h, a Tmax (clinical; 20 mg) of 0.75 h and an AUC(0-t) (clinical; 20 mg) of 781 ng·h/mL. For the same compound, the Cmax (clinical; 20 mg, Cmax) was 232 ng/mL, the half-life (clinical; 20 mg) was 1.5 h and the Tmax (clinical; 20 mg, Tmax) was 0.5 h. The “AUC0–24” value (clinical; 30 mg) was 4401 ng·h/mL, the Cmax (clinical; 30 mg) was 536 ng/mL and the Tmax (clinical; 30 mg) was 1.75 h. For the same compound, the AUC(0-t) (clinical; 30 mg) was 2520 ng·h/mL, the Cmax (clinical; 30 mg, Cmax) was 315 ng/mL and the half-life (clinical; 30 mg) was 6 h. For the same compound, the Tmax (clinical; 30 mg, Tmax) was 1.5 h and the principal toxicity [7] was “cell debris in the gall bladder, with mucosal erosions and epithelial hyperplasia”.
For `CNC(=O)[C@@H](NC(=O)[C@H](CC(C)C)[C@H](O)C(=O)NO)C(C)(C)C` [marimastat], the treatment-limiting toxicities ([8]; clinical testing of marimastat, Tierney et al, 1999, Evans et al, 2001) is listed as “Musculoskeletal pain and inflammation” and the “AUC achieved at the MTD” value ([8]; phase I studies of marimastat) is listed as 2623 ng·h/mL.
